Where a SMILES comes first, the peptide text is derived from it. The star is where a group is joined. X1 = CC(C)C[C@@H](N)[C@H](O)C(=O)*
Experiments:
Format in all cases: biochemical
[1] = target: T1, leucine aminopeptidase (Leu-AP) (Sus scrofa, UniProt P28839); experiment: Leu-AP (E.C. 3,4,11,1) inhibition assay; conditions: Leu-AP (Boehringer-Mannheim), leucyl-β-naphthylamide substrate, pH 7.6, 37° C., 30 minutes; read-out: IC/50 Leu--AP: amount of the peptide to inhibit the intact activity of the target enzyme by 50% (converted)
T1 construct: purchased Boehringer-Mannheim Co
T1 sequence (P28839 1-519): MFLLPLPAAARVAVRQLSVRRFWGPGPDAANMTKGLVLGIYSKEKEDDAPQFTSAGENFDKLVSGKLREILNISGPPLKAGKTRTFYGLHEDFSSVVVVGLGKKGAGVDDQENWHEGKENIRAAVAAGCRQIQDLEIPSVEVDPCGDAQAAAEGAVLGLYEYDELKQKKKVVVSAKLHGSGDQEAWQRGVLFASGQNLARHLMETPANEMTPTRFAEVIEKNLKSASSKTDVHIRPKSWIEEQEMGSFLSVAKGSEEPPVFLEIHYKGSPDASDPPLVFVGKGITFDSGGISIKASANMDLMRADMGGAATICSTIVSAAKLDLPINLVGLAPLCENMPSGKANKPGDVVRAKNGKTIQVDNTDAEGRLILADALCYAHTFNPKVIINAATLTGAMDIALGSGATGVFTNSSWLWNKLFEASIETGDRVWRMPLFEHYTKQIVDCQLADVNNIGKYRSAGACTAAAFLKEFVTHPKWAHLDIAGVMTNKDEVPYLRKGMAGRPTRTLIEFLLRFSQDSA
Description: For enzyme assay, 0.25 ml of 2 mM […], 0.6 ml of 0.1 M Tris-HCl buffer, pH 7.6, and 0.1 ml of an aqueous solution containing a test compound were mixed and allowed to stand at 37° C. for 3 minutes. After a 20-fold dilution of Leu-AP (Boehringer-Mannheim Co.) in 0.1 M Tris-HCl buffer, pH 7.6 (0.05 ml) was added to the solution, the reaction was performed at 37° C. for 30 minutes. The inhibition percentage was measured as detailed in (1).

aminopeptidase A (AP-A) = target: T2, aminopeptidase A (AP-A) (Homo sapiens, UniProt Q07075); experiment: AP-A (E.C. 3,4,11,7) inhibition assay; conditions: L-α-glutamyl-β-naphthylamide substrate, pH 7.0, 37° C., 30 minutes; read-out: IC/50 AP--A: amount of the peptide to inhibit the intact activity of the target enzyme by 50% (converted)
T2 construct: an AP-A solution which was obtained by ammonium sulfate fractionation according to the method of Nagatsu et al; from tissue
Description: That is, 0.25 ml of 2 mM L-α-glutamyl-β-naphthylamide, 0.54 ml of 0.1 M Tris-HCl buffer, pH 7.0, 0.01 ml of 0.1 M calcium chloride and 0.1 ml of a test sample in water were mixed and kept at 37° C. for 3 minutes. The reaction was initiated by addition of 0.1 ml of an AP-A solution which was obtained by ammonium sulfate fractionation according to the method of Nagatsu et al. After incubation at 37° C. for 30 minutes, 1 ml of 1.0 M acetate buffer, pH 4.2, containing 1.0 mg/ml Garnet GBC (orthoaminoazotoluene diazonium salt) and 10% Tween 20 (Atlas Chemical Co., U.S.A.) was added to the reaction solution and then allowed to stand at room temperature for 15 minutes. The absorbance of the test solution (a) was measured at 530 nm. The control solution without the test sample was used as the blank test (absorbance (b)). The inhibition percentage on aminopeptidase A was calculated as [(b-a)/b]x100.

[2] = target: glycylprolylleucine tripeptidylaminopeptidase (Gly-Pro-Leu-AP); experiment: Gly-Pro-Leu-AP inhibition assay; conditions: enzyme from cell membrane fraction of rat liver, Hanks solution pH 7.2, 37° C., 30 minutes
Description: According to the method of Aoyagi et al. (T. Aoyagi et al: BIOCHIMICA ET BIOPHYSICA ACTA 452, 131-143(1976)), after a reaction mixture consisting of 0.25 ml of 2 mM glycyl-L-α-prolyl-L-α-leucyl-β-naphthylamide (Buchem Fine Chemicals Co.), 0.6 ml of the Hanks solution, pH 7.2, and 0.1 ml of an aqueous test solution was kept at 37° C. for 3 minutes, 0.05 ml of a Gly-Pro-Leu-AP that was purified from the cell membrane fraction of the rat liver was added and the reaction was carried out at 37° C. for 30 minutes. The same procedure as described in (1) was used for calculation of the inhibition percentage.
The Hanks solution listed above was prepared by dissolving 8.0 g sodium chloride, 0.4 g potassium chloride, 0.14 g calcium chloride, 0.10 g magnesium chloride, 0.06 g disodium-monohydrogen phosphate, 0.06 g monopotassium dihydrogen phosphate, 0.10 g magnesium sulfate and 1.0 g glucose in 1 liter of distilled water and adjusting the solution to pH 7.2 with solid sodium bicarbonate (about 350 mg).

[3] = target: glycylhistidyllysine tripeptidylaminopeptidase (Gly-His-Lys-AP); experiment: Gly-His-Lys-AP inhibition assay; conditions: enzyme from FM3A cells (mouse mammary tumor), Hanks solution pH 7.2, 37° C., 30 minutes
Description: For enzyme assay, 0.25 ml of 0.5 mM glycyl-L-α-histidyl-L-α-lysyl-β-naphthylamide, 0.62 ml of the Hanks solution, pH 7.2, and 0.1 ml of an aqueous solution of a substance to be tested were combined and maintained at 37° C. for 3 minutes. Gly-His-Lys-AP solution (0.03 ml) which was purified from the FM3A cells (a line of culture cells derived from mouse mammary tumor) by the method described in the reference of (4) was added to the solution and incubated at 37° C. for 30 minutes. The inhibition percentage was calculated as shown in (1).
Gly-His-Lys -β-naphthylamide used above was prepared as follows: to a solution containing 1 g of Gly-His-Lys-acetate (Buchem Fine Chemicals Co.) and 3.0 g of sodium bicarbonate in 60 ml of distilled water, 2.13 ml of Z-Cl was added dropwise under cooling with ice and then stirred for 3 hours. The same treatment as detailed above in Experiment 1-(7) was performed to give 605.8 mg of the Z-derivative of the tripeptide. […]

T2 sequence (Q07075 whole entry): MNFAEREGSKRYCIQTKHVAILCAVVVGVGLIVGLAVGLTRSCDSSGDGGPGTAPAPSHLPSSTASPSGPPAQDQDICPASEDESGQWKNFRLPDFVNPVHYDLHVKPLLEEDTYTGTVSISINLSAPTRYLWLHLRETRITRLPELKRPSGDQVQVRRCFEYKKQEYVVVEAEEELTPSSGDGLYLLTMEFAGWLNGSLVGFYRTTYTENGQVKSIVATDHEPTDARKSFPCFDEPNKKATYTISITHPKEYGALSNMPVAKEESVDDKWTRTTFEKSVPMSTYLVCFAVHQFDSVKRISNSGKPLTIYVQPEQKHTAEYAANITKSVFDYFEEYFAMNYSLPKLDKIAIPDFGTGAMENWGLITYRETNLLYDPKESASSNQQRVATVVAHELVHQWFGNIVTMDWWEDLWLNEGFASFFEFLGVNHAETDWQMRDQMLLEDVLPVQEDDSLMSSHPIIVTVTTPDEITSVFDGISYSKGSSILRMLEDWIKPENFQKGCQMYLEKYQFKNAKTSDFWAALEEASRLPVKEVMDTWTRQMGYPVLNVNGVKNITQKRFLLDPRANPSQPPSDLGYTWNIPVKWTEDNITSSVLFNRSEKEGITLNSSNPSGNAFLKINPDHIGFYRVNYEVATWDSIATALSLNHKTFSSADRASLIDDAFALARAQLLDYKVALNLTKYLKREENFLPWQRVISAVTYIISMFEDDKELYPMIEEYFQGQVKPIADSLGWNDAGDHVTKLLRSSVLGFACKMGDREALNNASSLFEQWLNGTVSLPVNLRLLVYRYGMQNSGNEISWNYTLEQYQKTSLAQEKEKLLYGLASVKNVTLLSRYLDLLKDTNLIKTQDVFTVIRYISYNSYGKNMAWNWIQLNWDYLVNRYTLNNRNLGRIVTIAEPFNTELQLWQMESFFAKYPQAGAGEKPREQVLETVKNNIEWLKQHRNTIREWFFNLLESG

Structure (SMILES) | IC50 [1] [µM] | IC50 (aminopeptidase A (AP-A)) [µM] | IC/50 Gly--Pro--Leu--AP: amount of the peptide to inhibit the intact activity of the target enzyme by 50% [2] [µg/mL] | IC/50 Gly--His--Lys--AP: amount of the peptide to inhibit the intact activity of the target enzyme by 50% [3] [µg/mL]
CC(C)C[C@@H](N)[C@H](O)C(=O)N[C@@H](CCC(=O)O)C(=O)N[C@H](C(=O)N[C@@H](CC(=O)O)C(=O)O)C(C)C [X--Glu--Val--Asp, (2S,3R)-AHMHA-Glu-Val-Asp] | 79.3 | 3.96 | 6 | 2.0
CC(C)C[C@H](NC(=O)[C@@H](O)[C@H](N)CC(C)C)C(=O)N[C@H](C(=O)N[C@@H](CC(=O)O)C(=O)O)C(C)C [X--Leu--Val--Asp, (2S,3R)-AHMHA-Leu-Val-Asp] | 0.614 | 10.2 |  | 
CC(C)C[C@@H](N)[C@H](O)C(=O)N[C@H](C(=O)N[C@H](C(=O)N[C@H](C(=O)N[C@@H](CC(=O)O)C(=O)O)C(C)C)C(C)C)C(C)C [X--Val--Val--Val--Asp] (X1-VVVD-OH) | 7.32 | 31.4 |  | 
CC(C)C[C@@H](N)[C@H](O)C(=O)N[C@@H](CCCCN)C(=O)N[C@H](C(=O)N[C@@H](CC(=O)O)C(=O)O)C(C)C [X--Lys--Val--Asp, (2S,3R)-AHMHA-Lys-Val-Asp] | 218 | 2.98 |  | 
CC(C)C[C@@H](N)[C@H](O)C(=O)N[C@H](C(=O)N[C@H](C(=O)N1CCC[C@H]1C(=O)O)C(C)C)C(C)C [X--Val--Val--Pro, (2S,3R)-AHMHA-Val-Val-Pro] | 5.91 | 76.7 |  | 
CC(C)C[C@@H](N)[C@H](O)C(=O)N[C@@H](CC(=O)O)C(=O)O [X--Asp] | 105 | > 905 |  | 
CC(C)C[C@@H](N)[C@H](O)C(=O)N[C@H](C(=O)N[C@@H](CCC(=O)O)C(=O)N[C@@H](CC(=O)O)C(=O)O)C(C)C [X--Val--Glu--Asp, (2S,3R)-AHMHA-Val-Glu-Asp] | 0.198 | 15.9 | 15 | 100
CC(C)C[C@@H](N)[C@H](O)C(=O)N1CCC[C@H]1C(=O)O [X--Pro] | 83.2 | 774 |  | 
CC(C)C[C@@H](N)[C@H](O)C(=O)N[C@@H](C)C(=O)N[C@@H](C)C(=O)N[C@@H](CC(=O)O)C(=O)O [X--Ala--Ala--Asp] | > 597 | > 597 |  | 
CC(C)C[C@@H](N)[C@H](O)C(=O)N[C@H](C(=O)O)C(C)C [X--Val] | 1.92 | 864 |  | 
CC(C)C[C@@H](N)[C@H](O)C(=O)N[C@H](C(=O)N[C@@H](CCCCN)C(=O)N[C@@H](CC(=O)O)C(=O)O)C(C)C [X--Val--Lys--Asp, (2S,3R)-AHMHA-Val-Lys-Asp] | 6.95 | 19.9 |  | 
CC(C)C[C@@H](N)[C@H](O)C(=O)N[C@H](C(=O)N[C@@H](CC(=O)O)C(=O)O)C(C)C [X--Val--Asp] | 0.799 | 32 |  | 

Next, values leading:

IC50 [1] [µM] | IC50 (aminopeptidase A (AP-A)) [µM] | IC/50 Gly--Pro--Leu--AP: amount of the peptide to inhibit the intact activity of the target enzyme by 50% [2] [µg/mL] | IC/50 Gly--His--Lys--AP: amount of the peptide to inhibit the intact activity of the target enzyme by 50% [3] [µg/mL] | Structure (SMILES)
0.727 | 1.18 |  |  | CC(C)C[C@@H](N)[C@H](O)C(=O)N[C@H](C(=O)N[C@H](C(=O)N[C@@H](Cc1ccccc1)C(=O)O)[C@@H](C)O)C(C)C [X--Val--Thr--Phe, (2S,3R)-AHMHA-Val-Thr-Phe]
65.6 | 43.1 |  |  | CC(C)C[C@@H](N)[C@H](O)C(=O)N[C@H](C(=O)N[C@H](C(=O)N[C@@H](CCCCN)C(=O)O)C(C)C)C(C)C [X--Val--Val--Lys, (2S,3R)-AHMHA-Val-Val-Lys]
4.5 | 4.09 |  |  | CC(C)C[C@@H](N)[C@H](O)C(=O)N[C@H](C(=O)N[C@H](C(=O)N[C@@H](CCC(=O)O)C(=O)O)C(C)C)C(C)C [X--Val--Val--Glu, reference compound]
5.25 | 0.315 |  |  | CC(C)C[C@@H](N)[C@H](O)C(=O)N[C@H](C(=O)N[C@H](C(=O)N[C@@H](CC(=O)O)C(=O)O)C(C)C)[C@@H](C)O [X--Thr--Val--Asp, (2S,3R)-AHMHA-Thr-Val-Asp]
1.43 | 0.614 |  |  | CC(C)C[C@H](NC(=O)[C@@H](NC(=O)[C@@H](O)[C@H](N)CC(C)C)C(C)C)C(=O)N[C@@H](CC(=O)O)C(=O)O [X--Val--Leu--Asp, (2S,3R)-AHMHA-Val-Leu-Asp]
4.34 | 14.2 |  |  | CC(C)C[C@@H](N)[C@H](O)C(=O)N[C@H](C(=O)N[C@H](C(=O)N[C@@H](Cc1ccccc1)C(=O)O)C(C)C)C(C)C [X--Val--Val--Phe, (2S,3R)-AHMHA-Val-Val-Phe]
7.6 | 5.86 |  |  | CC(C)C[C@@H](N)[C@H](O)C(=O)N[C@H](C(=O)N[C@H](C(=O)N[C@H](C(=O)O)[C@@H](C)O)C(C)C)C(C)C [X--Val--Val--Thr, (2S,3R)-AHMHA-Val-Val-Thr]
2.1 | 2.1 |  |  | CC(C)C[C@@H](N)[C@H](O)C(=O)N[C@H](C(=O)N[C@H](C(=O)N[C@@H](CC(=O)O)C(=O)O)[C@@H](C)O)C(C)C [X--Val--Thr--Asp, (2S,3R)-AHMHA-Val-Thr-Asp]
38.8 | 26.2 |  |  | CC(C)C[C@@H](N)[C@H](O)C(=O)N[C@H](C(=O)N[C@H](C(=O)N[C@@H](CCCNC(=N)N)C(=O)O)C(C)C)C(C)C [X--Val--Val-- Arg, (2S,3R)-AHMHA-Val-Val-Arg]
3.92 | 9.38 |  |  | CC(C)C[C@@H](N)[C@H](O)C(=O)N[C@H](C(=O)N[C@H](C(=O)N[C@H](C(=O)O)C(C)C)C(C)C)C(C)C [X--Val--Val--Val, (2S,3R)-AHMHA-Val-Val-Val]
369 | 3.9 |  |  | CC(C)C[C@@H](N)[C@H](O)C(=O)N[C@@H](CCCCN)C(=O)N[C@H](C(=O)N[C@H](C(=O)O)C(C)C)C(C)C [X--Lys--Val--Val, (2S,3R)-AHMHA-Lys-Val-Val]
2.5 | 10 |  |  | CC(C)C[C@@H](N)[C@H](O)C(=O)N[C@H](C(=O)N[C@H](C(=O)O)C(C)C)C(C)C [X--Val--Val]

Source: patent publication US4318847A, “Physiologically active tetrapeptides” (Zaidan Hojin Biseibutsu Kagaku Kenkyu Kai, priority 1979, dated 1982)
